Values quoted from earlier work as cited in US6703346B2, “Herbicide compositions comprising imidazolinone acid, methods of preparation, and methods of use” (Platte Chemical Co., priority 2001, dated 2004).

Settings: general statement, no measurement described

Molecule | pKa
CC(C)C1(C)N=C(c2nc3ccccc3cc2C(=O)O)NC1=O (stereo not drawn) [imazaquin] | approximately 3.8
CCc1cnc(C2=NC(C)(C(C)C)C(=O)N2)c(C(=O)O)c1 (stereo not drawn) [imazethapyr] | approximately 3.9
imazamethbenz | approximately 2.9
